Among the data in publication PMC6117054, “The Congo red derivative FSB binds to curli amyloid fibers and specifically stains curliated E. coli” (PLoS ONE, 2018) are Kd values, retold here.

A word on the Kd: it is the constant that tells how readily two partners part at equilibrium. High values mean weaker binding, low ones tighter binding.

The structures appear in SMILES notation.

The target in the experiment is T1, curli (native curli fibers; monomeric unit CsgA) (Escherichia coli, UniProt P28307).
T1 construct: native curli amyloid fibers isolated from E. coli MC4100; mature secreted CsgA (signal peptide removed); 13 kDa monomeric unit; fiber polymer
Kind of experiment: depletion (centrifugation) assay, absorbance of free dye at […] nm, saturation fit. In kind it is binding.

T1 sequence (P28307 21-151): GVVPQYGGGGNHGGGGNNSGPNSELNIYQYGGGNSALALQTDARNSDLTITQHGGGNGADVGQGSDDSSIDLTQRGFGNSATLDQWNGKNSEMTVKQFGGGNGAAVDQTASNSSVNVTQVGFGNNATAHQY

`O=C(O)c1cc(/C=C/c2ccc(/C=C/c3ccc(O)c(C(=O)O)c3)c(F)c2)ccc1O` [FSB, (E,E)-1-fluoro-2,5-bis(3-hydroxycarbonyl-4-hydroxy) styrylbenzene] displayed a Kd of 7.9 µM.
